Results as given in ChEMBL document CHEMBL1148465, “Carbonic anhydrase inhibitors: the first selective, membrane-impermeant inhibitors targeting the tumor-associated isozyme IX” (Bioorg Med Chem Lett, 2004).

Key:
Carbonic anhydrase 4 = target: T1, Carbonic anhydrase 4 (Bos taurus, UniProt Q95323)
T1 sequence (Q95323 whole entry): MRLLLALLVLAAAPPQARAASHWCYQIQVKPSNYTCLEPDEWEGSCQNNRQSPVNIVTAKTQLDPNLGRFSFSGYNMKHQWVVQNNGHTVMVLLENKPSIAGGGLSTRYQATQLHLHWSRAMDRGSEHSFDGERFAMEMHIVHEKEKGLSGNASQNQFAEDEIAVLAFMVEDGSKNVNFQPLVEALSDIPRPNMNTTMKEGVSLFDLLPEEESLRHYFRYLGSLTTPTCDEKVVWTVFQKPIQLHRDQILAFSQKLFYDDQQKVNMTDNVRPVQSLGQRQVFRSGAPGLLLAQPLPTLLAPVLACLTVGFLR
Description: Inhibitory activity against carbonic anhydrase IV from bovine lung microsomes

Carbonic anhydrase 9 = Carbonic anhydrase 9 (Homo sapiens, UniProt Q16790)
Description: Inhibitory activity against human carbonic anhydrase IX

Carbonic anhydrase 1 = Carbonic anhydrase 1 (Homo sapiens, UniProt P00915)
Carbonic anhydrase 1, sequence (P00915 whole entry): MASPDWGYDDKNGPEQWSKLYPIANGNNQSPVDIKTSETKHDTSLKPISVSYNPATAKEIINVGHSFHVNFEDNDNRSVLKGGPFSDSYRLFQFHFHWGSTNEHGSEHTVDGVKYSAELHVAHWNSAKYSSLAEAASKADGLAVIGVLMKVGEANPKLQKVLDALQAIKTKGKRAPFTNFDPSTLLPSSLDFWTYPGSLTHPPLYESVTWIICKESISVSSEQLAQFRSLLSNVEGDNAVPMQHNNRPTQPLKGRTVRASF
Description: Inhibitory activity against human carbonic anhydrase I

Carbonic anhydrase 2 = Carbonic anhydrase 2 (Homo sapiens, UniProt P00918)
Description: Inhibitory activity against human carbonic anhydrase II

Row | Ki (Carbonic anhydrase 4) | Ki (Carbonic anhydrase 9) | Ki (Carbonic anhydrase 1) | Ki (Carbonic anhydrase 2) | Compound
1 | 2.1 µM | > 0.5 µM | – | – | CC(C)c1cc(-c2ccccc2)cc(-c2ccccc2)[n+]1-c1ccc(S(N)(=O)=O)cc1
2 | 0.021 µM | 0.008 µM | 1 µM | – | CCc1cc(-c2ccccc2)cc(CC)[n+]1CCc1ccc(S(N)(=O)=O)cc1
3 | 0.021 µM | 0.008 µM | 2 µM | – | Cc1cc(C)[n+](CCc2ccc(S(N)(=O)=O)cc2)c(C)c1C
4 | – | – | 2 µM | – | Cc1cc(C)[n+](CCc2ccc(S(N)(=O)=O)cc2)c(C(C)C)c1
5 | 0.07 µM | – | 3 µM | 0.02 µM | Cc1cc(C(C)C)[n+](CCc2ccc(S(N)(=O)=O)cc2)c(C(C)C)c1
6 | – | – | 40 µM | – | CCc1cc(-c2ccccc2)cc(-c2ccccc2)[n+]1CCc1ccc(S(N)(=O)=O)cc1
7 | – | > 0.5 µM | – | – | CCCc1cc(-c2ccccc2)cc(-c2ccccc2)[n+]1-c1ccc(S(N)(=O)=O)cc1
8 | 1.95 µM | – | 280 µM | – | NS(=O)(=O)c1ccc(C[n+]2c(-c3ccccc3)cccc2-c2ccccc2)cc1
9 | 0.983 µM | 0.079 µM | 42 µM | 0.314 µM | CCc1cc(-c2ccccc2)cc(-c2ccccc2)[n+]1Cc1ccc(S(N)(=O)=O)cc1
10 | – | – | 10 µM | – | CCCc1cc(-c2ccccc2)cc(CCC)[n+]1-c1ccc(S(N)(=O)=O)cc1
11 | – | – | 3 µM | – | Cc1cc(C)[n+](Cc2ccc(S(N)(=O)=O)cc2)c(C)c1C
12 | – | – | 7 µM | 0.06 µM | Cc1cc(-c2ccccc2)cc(C)[n+]1-c1ccc(S(N)(=O)=O)cc1
13 | – | – | 6 µM | 0.021 µM | CC(C)c1cc(-c2ccccc2)cc(C(C)C)[n+]1CCc1ccc(S(N)(=O)=O)cc1
14 | – | – | 112 µM | – | CCCc1cc(-c2ccccc2)cc(-c2ccccc2)[n+]1CCc1ccc(S(N)(=O)=O)cc1
15 | – | – | 2 µM | 0.021 µM | CCc1cc(-c2ccccc2)cc(CC)[n+]1Cc1ccc(S(N)(=O)=O)cc1
16 | – | – | 112 µM | – | CC(C)c1cc(-c2ccccc2)cc(-c2ccccc2)[n+]1Cc1ccc(S(N)(=O)=O)cc1

Row | Ki (Carbonic anhydrase 4) | Ki (Carbonic anhydrase 9) | Ki (Carbonic anhydrase 1) | Ki (Carbonic anhydrase 2) | Compound
17 | – | – | 1 µM | – | Cc1cc(-c2ccccc2)cc(C)[n+]1CCc1ccc(S(N)(=O)=O)cc1
18 | – | – | 40 µM | – | Cc1cc(-c2ccccc2)cc(-c2ccccc2)[n+]1-c1ccc(S(N)(=O)=O)cc1
19 | – | > 0.5 µM | – | – | CCCCc1cc(-c2ccccc2)cc(-c2ccccc2)[n+]1-c1ccc(S(N)(=O)=O)cc1
20 | 0.144 µM | – | – | – | Cc1cc(C(C)C)[n+](Cc2ccc(S(N)(=O)=O)cc2)c(C(C)C)c1
21 | – | > 0.5 µM | 290 µM | – | NS(=O)(=O)c1ccc(-[n+]2c(-c3ccccc3)cc(-c3ccccc3)cc2-c2ccccc2)cc1
22 | – | – | 6 µM | 0.06 µM | CCc1cc(-c2ccccc2)cc(CC)[n+]1-c1ccc(S(N)(=O)=O)cc1
23 | – | – | 7 µM | – | CCCc1cc(-c2ccccc2)cc(CCC)[n+]1CCc1ccc(S(N)(=O)=O)cc1
24 | 2.1 µM | 0.135 µM | 300 µM | 0.595 µM | CCCCc1cc(-c2ccccc2)cc(-c2ccccc2)[n+]1Cc1ccc(S(N)(=O)=O)cc1
25 | – | – | 6 µM | 0.05 µM | Cc1cc(C)[n+](Cc2ccc(S(N)(=O)=O)cc2)c(C(C)C)c1
26 | – | 0.12 µM | 290 µM | – | CCCCc1cc(-c2ccccc2)cc(-c2ccccc2)[n+]1CCc1ccc(S(N)(=O)=O)cc1
27 | – | > 0.5 µM | – | – | CC(C)(C)c1cc(-c2ccccc2)cc(-c2ccccc2)[n+]1CCc1ccc(S(N)(=O)=O)cc1
28 | 1.96 µM | 0.12 µM | 280 µM | – | NS(=O)(=O)c1ccc(C[n+]2c(-c3ccccc3)cc(-c3ccccc3)cc2-c2ccccc2)cc1
29 | – | – | 5 µM | – | Cc1cc(C)[n+](-c2ccc(S(N)(=O)=O)cc2)c(C)c1C
30 | – | – | 7 µM | 0.05 µM | Cc1cc(C)[n+](Cc2ccc(S(N)(=O)=O)cc2)c(C)c1
31 | – | – | 10 µM | – | Cc1cc(C)[n+](-c2ccc(S(N)(=O)=O)cc2)c(C)c1
32 | – | > 0.5 µM | – | – | CC(C)(C)c1cc(-c2ccccc2)cc(-c2ccccc2)[n+]1Cc1ccc(S(N)(=O)=O)cc1

Row | Compound | Ki (Carbonic anhydrase 4) | Ki (Carbonic anhydrase 9) | Ki (Carbonic anhydrase 1) | Ki (Carbonic anhydrase 2)
33 | CC(C)c1cc(-c2ccccc2)cc(C(C)C)[n+]1-c1ccc(S(N)(=O)=O)cc1 | – | – | 5 µM | –
34 | Cc1cc(-c2ccccc2)cc(C)[n+]1Cc1ccc(S(N)(=O)=O)cc1 | 0.07 µM | – | 4 µM | –
